# From paper PMC8774285, “In Silico, In Vitro and In Vivo Analysis of Tanshinone IIA and Cryptotanshinone from Salvia miltiorrhiza as Modulators of Cyclooxygenase-2/mPGES-1/Endothelial Prostaglandin EP3 Pathway” (Biomolecules, 2022)
# Legend:
# Type in all cases: biochemical
# cyclooxygenase-1 (COX-1) = target: T1, cyclooxygenase-1 (COX-1) (Ovis aries, UniProt P05979); assay: isolated COX-1 activity assay ([…] AA, 12-HHT formation); […] residual activity at […]
# T1 construct: gene PTGS1; purified ovine COX-1
# T1 sequence (P05979 25-600): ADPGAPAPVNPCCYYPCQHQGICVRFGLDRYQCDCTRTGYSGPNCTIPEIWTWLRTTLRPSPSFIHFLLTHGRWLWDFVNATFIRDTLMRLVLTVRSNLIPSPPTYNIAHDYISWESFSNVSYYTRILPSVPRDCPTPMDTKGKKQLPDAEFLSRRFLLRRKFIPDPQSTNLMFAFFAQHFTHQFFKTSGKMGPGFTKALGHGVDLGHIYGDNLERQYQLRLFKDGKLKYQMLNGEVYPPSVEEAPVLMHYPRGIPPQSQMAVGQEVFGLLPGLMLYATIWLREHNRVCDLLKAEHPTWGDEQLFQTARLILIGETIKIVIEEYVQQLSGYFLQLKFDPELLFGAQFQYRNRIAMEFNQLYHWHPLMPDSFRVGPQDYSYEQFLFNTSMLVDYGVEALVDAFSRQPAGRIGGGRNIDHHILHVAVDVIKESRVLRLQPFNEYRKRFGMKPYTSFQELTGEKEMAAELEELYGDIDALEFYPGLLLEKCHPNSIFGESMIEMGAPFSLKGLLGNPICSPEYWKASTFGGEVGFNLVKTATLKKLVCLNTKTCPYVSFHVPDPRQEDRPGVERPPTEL
# cyclooxygenase-2 (COX-2) = target: T2, cyclooxygenase-2 (COX-2) (Homo sapiens, UniProt P35354); assay: isolated COX-2 activity assay ([…] AA, 12-HHT formation); […] residual activity at […]
# T2 construct: gene PTGS2; recombinant human COX-2
# T2 sequence (P35354 18-604): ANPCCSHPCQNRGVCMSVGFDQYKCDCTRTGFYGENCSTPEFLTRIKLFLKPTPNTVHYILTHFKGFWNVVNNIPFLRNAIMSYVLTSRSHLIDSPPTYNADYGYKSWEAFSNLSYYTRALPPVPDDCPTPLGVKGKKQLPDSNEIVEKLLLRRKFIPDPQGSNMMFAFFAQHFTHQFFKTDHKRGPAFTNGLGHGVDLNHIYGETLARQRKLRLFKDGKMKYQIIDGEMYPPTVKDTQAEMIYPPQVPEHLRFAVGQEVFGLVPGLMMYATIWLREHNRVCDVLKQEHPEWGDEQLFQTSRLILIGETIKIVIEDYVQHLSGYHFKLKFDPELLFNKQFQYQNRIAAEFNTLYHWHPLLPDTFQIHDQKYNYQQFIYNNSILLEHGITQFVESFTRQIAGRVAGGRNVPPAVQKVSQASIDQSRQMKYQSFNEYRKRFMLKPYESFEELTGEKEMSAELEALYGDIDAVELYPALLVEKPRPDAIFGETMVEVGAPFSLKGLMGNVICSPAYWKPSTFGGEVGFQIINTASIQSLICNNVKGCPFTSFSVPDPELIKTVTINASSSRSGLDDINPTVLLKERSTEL
# 5-lipoxygenase (5-LO) = target: T3, 5-lipoxygenase (5-LO) (Homo sapiens, UniProt P09917); assay: isolated 5-LO activity assay ([…] AA, products by RP-HPLC)
# T3 construct: gene ALOX5; recombinant, expressed in E. coli BL21 (DE3) with pT3-5-LO, purified on ATP-agarose
# T3 sequence (P09917 1-674): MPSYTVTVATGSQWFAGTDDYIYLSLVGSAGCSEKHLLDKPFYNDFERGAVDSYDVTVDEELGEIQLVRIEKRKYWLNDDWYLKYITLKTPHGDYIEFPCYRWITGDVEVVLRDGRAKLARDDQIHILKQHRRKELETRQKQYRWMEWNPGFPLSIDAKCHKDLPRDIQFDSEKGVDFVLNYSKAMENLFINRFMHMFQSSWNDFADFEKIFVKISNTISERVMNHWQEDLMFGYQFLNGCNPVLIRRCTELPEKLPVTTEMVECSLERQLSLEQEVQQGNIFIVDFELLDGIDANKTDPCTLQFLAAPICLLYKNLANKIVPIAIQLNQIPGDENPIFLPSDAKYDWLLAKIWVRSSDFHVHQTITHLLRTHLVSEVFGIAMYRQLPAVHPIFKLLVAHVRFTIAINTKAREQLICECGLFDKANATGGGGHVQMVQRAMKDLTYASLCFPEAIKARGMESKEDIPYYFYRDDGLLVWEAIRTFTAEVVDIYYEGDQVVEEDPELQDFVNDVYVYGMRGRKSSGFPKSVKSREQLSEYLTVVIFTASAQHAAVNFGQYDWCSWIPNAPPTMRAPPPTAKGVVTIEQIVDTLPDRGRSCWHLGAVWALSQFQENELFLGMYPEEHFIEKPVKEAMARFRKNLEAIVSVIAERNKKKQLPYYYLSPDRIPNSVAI
smiles,measurement,setting,value
"C[C@H]1COC2=C1C(=O)C(=O)c1c2ccc2c1CCCC2(C)C [CRY, cryptotanshinone]",IC50,cyclooxygenase-1 (COX-1),> 30 µM
same,IC50,cyclooxygenase-2 (COX-2),> 30 µM
same,IC50,5-lipoxygenase (5-LO),7.1 µM
